Assay results as given in paper PMC7321178 (Molecules, 2020).
Where “and” joins values, the source holds several entries; their conditions need not be identical. Equal entries are not always repeated. Where two headings read alike, the source gives them in different places.

Tests used:
[1] = target: T1, BuChE from equine serum (eqBuChE) (Equus caballus, UniProt P81908); assay: biochemical; details: for inhibition at 10 µM: 10 µM compound concentration, mean ± standard deviation, read-out: % Inhibition +/- SD (eqBuChE)
T1 construct: BuChE obtained from equine serum (eqBuChE); purchased Sigma–Aldrich (Steinheim, Germany); host or cells: horse serum
Method: (§1) Compounds selected through virtual screening were tested for their ability to inhibit the activity of selected biological targets. The cholinesterase-inhibitory potency of the compounds was evaluated according to Ellman’s method using AChE obtained from E. electricus (eeAChE) and BuChE obtained from equine serum (eqBuChE).
(§2) The following reagents were purchased from Sigma–Aldrich (Steinheim, Germany): 5,5′-dithiobis-(2-nitrobenzoic acid) (DNTB), acetylthiocholine iodide (ATC), butyrylthiocholine iodide (BTC), AChE from Electrophorus electricus, and BuChE from horse serum. […] The biological assay was performed using Ellman’s method which was modified for 24-well plates. For this assay, 25 µL of the tested compounds or water (in the blank samples) and 20 µL of the enzyme in 765 µL of the buffer were incubated for 5 min at 25 °C before starting the reaction. Then, 20 µL of DTNB and 20 µL of the ATC/BTC solutions were added. […] To determine the IC50 value, the absorbance measured at six different concentrations of the inhibitor was converted to % inhibition of the enzyme and plotted against the applied concentration of the inhibitor, using nonlinear regression (GraphPad Prism 5; GraphPad Software, San Diego, CA, USA). […] All the reactions were performed in triplicate. Data are expressed as the mean ± SEM.

[2] = target: T2, AChE from Electrophorus electricus (eeAChE) (Electrophorus electricus, UniProt O42275); assay: biochemical; details: for inhibition at 10 µM: read-out: % Inhibition +/- SD (eeAChE)
T2 construct: purchased Sigma–Aldrich (Steinheim, Germany)
Method: as §1, §2

[3] = target: T3, eqBuChE (Equus caballus, UniProt P81908); assay: Kinetic studies of eqBuChE inhibition (Lineweaver-Burk, Cornish-Bowden plots); type: biochemical; details: substrate butyrylthiocholine
T3 construct: BuChE obtained from equine serum (eqBuChE); purchased Sigma–Aldrich (Steinheim, Germany); host or cells: horse serum
Method: […]. This was carried out by making use of the calculated values of Vmax and Km of the Michaelis–Menten kinetics and further through analyzing the Lineweaver–Burk and Cornish-Bowden reciprocal plots. […] […].
Kinetic studies were carried out by following Ellman’s method modified for 96-well plates, using different concentrations of the substrate. The stock solutions of ATC and BTC (0.02125 M) were prepared in water and diluted before use. […]. Lineweaver–Burk and Cornish-Bowden plots were generated using linear regression in GraphPad Prism 5 (GraphPad Software, San Diego, CA, USA). Each experiment was performed in triplicate.

[4] = target: T4, eeAChE (Electrophorus electricus, UniProt O42275); assay: Kinetic studies of eeAChE inhibition (Lineweaver-Burk, Cornish-Bowden plots); type: biochemical; details: substrate acetylthiocholine
T4 construct: purchased Sigma–Aldrich (Steinheim, Germany)
Method: This was carried out by making use of the calculated values of Vmax and Km of the Michaelis–Menten kinetics and further through analyzing the Lineweaver–Burk and Cornish-Bowden reciprocal plots.
Kinetic studies were carried out by following Ellman’s method modified for 96-well plates, using different concentrations of the substrate. The stock solutions of ATC and BTC (0.02125 M) were prepared in water and diluted before use. The aqueous stock solutions of enzymes (5 U/mL) were diluted to a final concentration of 0.384 U/mL. For each concentration of the test compounds, ATC or BTC was used at a concentration of 0.3, 0.24, 0.18, 0.12, 0.06, and 0.04 mM in the wells. Lineweaver–Burk and Cornish-Bowden plots were generated using linear regression in GraphPad Prism 5 (GraphPad Software, San Diego, CA, USA). Each experiment was performed in triplicate.

[5] = read-out: IC50 eqBuChE [µM] +/- SEM
[6] = mean ± SEM of at least three experiments
[7] = read-out: IC50 eeAChE [µM] +/- SEM

T1 sequence (P81908 whole entry): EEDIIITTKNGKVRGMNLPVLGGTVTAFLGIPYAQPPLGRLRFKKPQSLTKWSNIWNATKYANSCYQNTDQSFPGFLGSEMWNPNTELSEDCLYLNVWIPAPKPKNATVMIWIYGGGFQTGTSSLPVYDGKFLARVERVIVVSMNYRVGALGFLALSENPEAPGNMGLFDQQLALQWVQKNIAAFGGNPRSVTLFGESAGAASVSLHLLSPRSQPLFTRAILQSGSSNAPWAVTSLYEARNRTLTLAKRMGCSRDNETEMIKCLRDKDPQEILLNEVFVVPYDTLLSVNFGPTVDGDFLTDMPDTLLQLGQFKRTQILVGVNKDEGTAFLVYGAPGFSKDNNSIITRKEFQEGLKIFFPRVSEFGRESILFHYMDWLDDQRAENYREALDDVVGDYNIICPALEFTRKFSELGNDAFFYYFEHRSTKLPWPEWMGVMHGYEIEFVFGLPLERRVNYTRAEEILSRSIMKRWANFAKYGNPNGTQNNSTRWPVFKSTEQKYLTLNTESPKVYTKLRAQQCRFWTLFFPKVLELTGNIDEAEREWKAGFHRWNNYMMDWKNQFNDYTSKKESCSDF
T2 sequence (O42275 24-633): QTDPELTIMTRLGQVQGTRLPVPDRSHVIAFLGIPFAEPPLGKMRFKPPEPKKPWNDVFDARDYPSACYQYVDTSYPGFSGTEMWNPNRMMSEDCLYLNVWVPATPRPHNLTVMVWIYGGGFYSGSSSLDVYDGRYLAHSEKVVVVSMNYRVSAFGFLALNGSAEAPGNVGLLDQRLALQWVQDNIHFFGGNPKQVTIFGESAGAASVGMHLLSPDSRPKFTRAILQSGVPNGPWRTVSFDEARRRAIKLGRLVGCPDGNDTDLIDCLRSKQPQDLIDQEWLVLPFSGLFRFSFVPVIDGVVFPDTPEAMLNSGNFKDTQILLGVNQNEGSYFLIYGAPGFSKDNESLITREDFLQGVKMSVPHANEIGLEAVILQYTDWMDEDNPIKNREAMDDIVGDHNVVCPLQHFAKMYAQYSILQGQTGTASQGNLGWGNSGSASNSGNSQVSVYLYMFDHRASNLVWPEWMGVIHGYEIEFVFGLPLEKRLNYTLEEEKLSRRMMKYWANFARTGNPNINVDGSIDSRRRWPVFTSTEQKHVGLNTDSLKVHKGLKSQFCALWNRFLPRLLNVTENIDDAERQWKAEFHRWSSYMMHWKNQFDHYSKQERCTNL
T3 sequence (P81908 whole entry): as the sequence (P81908 whole entry) above
T4 sequence (O42275 24-633): as the sequence (O42275 24-633) above

SMILES: CCN(C)CC#CCN1c2ccncc2Sc2ncccc21 [Compound 14]
- inhibition at 10 µM [1]: 20.4 ± 1.9%
- inhibition at 10 µM [2]: 7.7 ± 2.1%

SMILES: CCN(CC)CC#CCN1c2ccncc2Sc2ncccc21 [Compound 15]
- inhibition at 10 µM [1]: 17.2 ± 7.3%
- inhibition at 10 µM [2]: 10.1 ± 3.1%

SMILES: c1cnc2c(c1)Sc1ccncc1N2CCN1CCCCC1 [Compound 8]
- inhibition at 10 µM [1]: 66 ± 3.4%
- IC50 [1, 5]: 4.44 ± 0.049 µM
- inhibition at 10 µM [2]: 33.5 ± 1.6%

SMILES: NCCCN1c2ccc(F)cc2Sc2cc3ccccc3nc21 [Compound 21]
- inhibition at 10 µM [1]: 76.3 ± 1.2%
- IC50 [1, 6]: 2.51 ± 0.047 µM
- inhibition at 10 µM [2]: 6.5 ± 2.8%

SMILES: CCN(CC)CC#CCN1c2ccncc2Sc2ccncc21 [Compound 11]
- inhibition at 10 µM [1]: 20.7 ± 0.9%
- inhibition at 10 µM [2]: 20.1 ± 1.4%

SMILES: C(#CCN1c2cccnc2Sc2cccnc21)CN1CCCCC1 [Compound 2, 10-(4-Piperidin-1-yl-but-2-ynyl)-1,6-diazaphenothiazine]
- inhibition at 10 µM [1]: 56.6 ± 2.4%
- IC50 [1, 6]: 8.94 ± 0.239 µM
- IC50 [2, 6]: 8.31 ± 0.315 µM
- inhibition at 10 µM [2]: 60.3 ± 8.8%

SMILES: CCN(CC)CC#CCN1c2ccc(SC)cc2Sc2cc3ccccc3nc21 [Compound 24, 6-(4-diethylaminobut-2-ynyl)-9-methylthioquinobenzothiazine]
- type of eqBuChE inhibition [3]: noncompetitive
- inhibition at 10 µM [1]: 95.5 ± 0.8%
- IC50 [1, 5]: 0.535 ± 0.013 µM
- inhibition at 10 µM [2]: 83.4 ± 1.1%
- IC50 [2, 7]: 0.784 ± 0.018 µM
- type of eeAChE inhibition [4]: noncompetitive

SMILES: CSc1ccc2c(c1)Sc1cc3ccccc3nc1N2CC#CCN1CCCC1 [Compound 25]
- inhibition at 10 µM [1]: 99.9 ± 0.7%
- IC50 [1, 5]: 0.506 ± 0.014 µM
- inhibition at 10 µM [2]: 78 ± 1.4%
- IC50 [2, 7]: 2.22 ± 0.062 µM

SMILES: C(#CCN1c2ccncc2Sc2ccncc21)CN1CCCC1 [Compound 12]
- inhibition at 10 µM [1]: 31.4 ± 1.7%
- inhibition at 10 µM [2]: 20.3 ± 1%

SMILES: C(#CCN1c2cccnc2Sc2cccnc21)CN1CCOCC1 [Compound 3, 10-(4-Morpholin-4-yl-but-2-ynyl)-1,6-diazaphenothiazine]
- inhibition at 10 µM [1]: 63.6 ± 2.4%
- IC50 [1, 6]: 9.25 ± 0.275 µM
- inhibition at 10 µM [2]: 13.7 ± 1.5%

SMILES: NCCCCN1c2ccc(F)cc2Sc2cc3ccccc3nc21 [Compound 22]
- inhibition at 10 µM [1]: 64.7 ± 1%
- IC50 [1, 6]: 3.93 ± 0.196 µM
- inhibition at 10 µM [2]: 2.3 ± 2.1%

SMILES: CN(C)CCCN1c2cnccc2Sc2cccnc21 [Compound 6]
- inhibition at 10 µM [1]: 85.8 ± 0.5%
- IC50 [1, 5]: 0.87 µM and 0.865 µM
- inhibition at 10 µM [2]: 20.4 ± 3.6%

SMILES: CN1CCCCC1CCN1c2cnccc2Sc2cccnc21 (stereo not shown) [Compound 9]
- inhibition at 10 µM [1]: 76.4 ± 0.2%
- IC50 [1, 5]: 3.03 ± 0.072 µM
- inhibition at 10 µM [2]: 58.1 ± 4.1%
- IC50 [2, 7]: 6.55 ± 0.177 µM

SMILES: CN1CCCCC1CCN1c2ccncc2Sc2ncccc21 (stereo not shown) [Compound 17]
- inhibition at 10 µM [1]: 16.1 ± 0.7%
- inhibition at 10 µM [2]: 33 ± 4.5%

SMILES: O=C1c2ccccc2C(=O)N1CCCN1c2cnccc2Sc2cccnc21 [Compound 10]
- inhibition at 10 µM [1]: 71.9 ± 4.3%
- IC50 [1, 5]: 3.67 ± 0.054 µM
- inhibition at 10 µM [2]: 49.6 ± 1.3%

SMILES: C(#CCN1c2cccnc2Sc2cccnc21)CN1CCCC1 [Compound 1, 10-(4-Pyrrolidin-1-yl-but-2-ynyl)-1,6-diazaphenothiazine]
- inhibition at 10 µM [1]: 65.4 ± 3%
- IC50 [1, 6]: 5.75 ± 0.164 µM
- inhibition at 10 µM [2]: 45.4 ± 9.8%

SMILES: CN1c2ccc(F)cc2Sc2cc3ccccc3nc21 [Compound 20]
- inhibition at 10 µM [1]: 35.3 ± 12.3%
- inhibition at 10 µM [2]: 3 ± 1.6%

SMILES: C(#CCN1c2ccncc2Sc2ncccc21)CN1CCCC1 [Compound 16]
- inhibition at 10 µM [1]: 58.5 ± 9%
- IC50 [1, 6]: 10.4 ± 0.308 µM
- inhibition at 10 µM [2]: 21.9 ± 5.7%

SMILES: CN1CCCCC1CCN1c2cccnc2Sc2cccnc21 (stereo not shown) [Compound 4]
- inhibition at 10 µM [1]: 57 ± 7.4%
- IC50 [1, 6]: 9.49 ± 0.33 µM
- inhibition at 10 µM [2]: 22.4 ± 1.1%

SMILES: C(#CCN1c2cnccc2Sc2cccnc21)CN1CCCC1 [Compound 7]
- inhibition at 10 µM [1]: 91.1 ± 0.8%
- IC50 [1, 5]: 0.929 ± 0.016 µM
- inhibition at 10 µM [2]: 57.3 ± 0.4%
- IC50 [2, 7]: 10 ± 0.604 µM

SMILES: C(#CCN1c2ccncc2Sc2ccncc21)CN1CCCCC1 [Compound 13]
- inhibition at 10 µM [1]: 37.6 ± 1.6%
- inhibition at 10 µM [2]: 51.6 ± 3.2%
- IC50 [2, 7]: 11.3 ± 0.464 µM

SMILES: O=C1c2ccccc2C(=O)N1CCCN1c2ccncc2Sc2ncccc21 [Compound 18]
- inhibition at 10 µM [1]: 30.5 ± 5.7%
- IC50 [2, 6]: 4.26 ± 0.078 µM
- inhibition at 10 µM [2]: 72.2 ± 0.7%

SMILES: Fc1ccc2c(c1)Sc1cc3ccccc3nc1N2 [Compound 19]
- inhibition at 10 µM [1]: 81 ± 1.4%
- IC50 [1, 5]: 1.02 ± 0.028 µM
- inhibition at 10 µM [2]: 6.6 ± 1.3%

SMILES: Fc1ccc2c(c1)Sc1cc3ccccc3nc1N2CCN1CCCCC1 [Compound 23, 9-Fluoro-6-(1-piperidylethyl)quinobenzothiazine]
- inhibition at 10 µM [1]: 97.7 ± 0.5%
- IC50 [1, 5]: 0.46 µM and 0.463 µM
- inhibition at 10 µM [2]: 27 ± 2.8%

SMILES: O=C1c2ccccc2C(=O)N1CCCN1c2cccnc2Sc2cccnc21 [Compound 5]
- inhibition at 10 µM [1]: 52.5 ± 5.9%
- IC50 [1, 6]: 10.1 ± 0.441 µM
- inhibition at 10 µM [2]: 7.3 ± 0.9%
